# Reference: patent publication US20240034727A1, “IMIDAZOLE COMPOUNDS AS INHIBITORS OF ENPP1” (STINGRAY THERAPEUTICS, INC., priority 2020, published 2024)
# pIC50: −log10 of the molar value.
# Target: Recombinant Human ENPP-1 Protein (Homo sapiens (Human), UniProt P22413)
# Assay: ENPP1 Inhibition Assay
# Format: biochemical
# Conditions: substrate Thymidine 5′-monophosphate p-nitrophenol ester; pH 9.0; 37° C. for 45 minutes; absorbance at 405 nm
# Description: Assay Buffer: 1 mM CaCl2), 0.2 mM ZnCl2, 50 mM Tris, pH 9.0. Substrate: 8 mM Thymidine 5′-monophosphate p-nitrophenol ester sodium salt (Sigma Cat #T4510). Enzyme: […] Recombinant Human ENPP-1 Protein (R&D Cat #6136-EN-010) in DMSO in 96-well clear assay plates.
# An eight point serial dilution of drugs was prepared in 10× in assay buffer with the final assay concentrations starting at 10 μM, 3 μM, 1 μM, 0.3 μM and 0 μM. A dilution of DMSO was included as a control. The assay plate was set up as follows with each well in duplicate: 81 μL assay buffer+10 μL ENPP1 inhibitor or DMSO+5 μL Substrate+4 μL Enzyme. Both the enzyme and substrate was added to opposite sides of the well to ensure that there was no interaction until all wells had both components. The plate was then centrifuged gently for 10 seconds, followed by an incubation at 37° C. for 45 minutes. The reaction was quantified by measuring absorbance at 405 nm using the Envision.
# IC50 values are determined using GraphPad Prism 5 software. The data were entered as an X-Y plot into the software as percent inhibition for each concentration of the drug. The concentration values of the drug were log transformed and the nonlinear regression was carried out using the “sigmoidal dose-response (variable slope)” option within the GraphPad software to model the data and calculate IC50 values. The IC50 values reported are the concentration of drug at which 50% inhibition was reached.
# Sequence of Recombinant Human ENPP-1 Protein (P22413 whole entry): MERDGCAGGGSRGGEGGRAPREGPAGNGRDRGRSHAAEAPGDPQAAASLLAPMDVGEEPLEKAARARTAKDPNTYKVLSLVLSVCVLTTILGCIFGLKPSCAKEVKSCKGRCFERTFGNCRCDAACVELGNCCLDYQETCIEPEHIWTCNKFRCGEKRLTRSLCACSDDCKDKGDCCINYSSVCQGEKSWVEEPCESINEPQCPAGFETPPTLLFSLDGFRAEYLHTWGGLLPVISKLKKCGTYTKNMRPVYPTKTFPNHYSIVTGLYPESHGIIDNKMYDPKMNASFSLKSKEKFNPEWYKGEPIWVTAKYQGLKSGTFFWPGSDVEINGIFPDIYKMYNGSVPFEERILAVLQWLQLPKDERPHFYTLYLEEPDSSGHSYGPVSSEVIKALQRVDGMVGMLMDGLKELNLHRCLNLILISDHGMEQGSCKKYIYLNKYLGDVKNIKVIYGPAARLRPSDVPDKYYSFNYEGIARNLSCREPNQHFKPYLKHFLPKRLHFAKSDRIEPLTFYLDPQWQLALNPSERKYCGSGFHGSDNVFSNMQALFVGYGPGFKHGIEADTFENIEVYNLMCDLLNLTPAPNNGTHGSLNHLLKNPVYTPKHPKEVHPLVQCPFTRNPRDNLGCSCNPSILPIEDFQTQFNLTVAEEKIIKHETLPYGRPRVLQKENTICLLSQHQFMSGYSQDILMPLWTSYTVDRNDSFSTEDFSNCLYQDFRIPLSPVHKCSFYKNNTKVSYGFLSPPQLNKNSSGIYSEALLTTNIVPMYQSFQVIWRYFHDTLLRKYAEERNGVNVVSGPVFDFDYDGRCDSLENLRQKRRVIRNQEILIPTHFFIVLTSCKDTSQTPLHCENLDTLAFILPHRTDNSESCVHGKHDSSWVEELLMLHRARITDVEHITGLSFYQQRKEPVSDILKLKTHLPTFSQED
row,SMILES,pIC50
1,"COc1ccc(NC(=O)CSc2nc(C(=O)O)c[nH]2)c(OC)c1F [Compound I-9, 2-((2-((3-fluoro-2,4-dimethoxyphenyl)amino)-2-oxoethyl)thio)-1H-imidazole-4-carboxylic acid]",< 5.00
2,"O=C(CSc1nc(C(=O)O)c[nH]1)NCc1cccc(Br)c1 [Compound I-11, 2-((2-((3-bromobenzyl)amino)-2-oxoethyl)thio)-1H-imidazole-4-carboxylic acid]",< 5.00
3,"O=C(CSc1nc(C(=O)O)c[nH]1)Nc1c(F)cccc1F [Compound I-13, 2-((2-((2,6-difluorophenyl)amino)-2-oxoethyl)thio)-1H-imidazole-4-carboxylic acid]",< 5.00
4,"COc1ccc(CNC(=O)CSc2nc(C(=O)O)c[nH]2)c(OC)c1 [Compound I-15, 2-((2-((2,4-dimethoxybenzyl)amino)-2-oxoethyl)thio)-1H-imidazole-4-carboxylic acid]",< 5.00
5,"Cc1ccc(F)c(NC(=O)CSc2nc(C(=O)O)c[nH]2)c1 [Compound I-17, 2-((2-((2-fluoro-5-methylphenyl)amino)-2-oxoethyl)thio)-1H-imidazole-4-carboxylic acid]",< 5.00
6,"O=C(CSc1nc(C(=O)O)c[nH]1)Nc1c(Cl)cccc1Cl [Compound I-18, 2-((2-((2,6-dichlorophenyl)amino)-2-oxoethyl)thio)-1H-imidazole-4-carboxylic acid]",< 5.00
7,"Cc1cccc(NC(=O)CSc2nc(C(=O)O)c[nH]2)c1C [Compound I-19, 2-((2-((2,3-dimethylphenyl)amino)-2-oxoethyl)thio)-1H-imidazole-4-carboxylic acid]",< 5.00
8,"O=C(CSc1nc(C(=O)O)c[nH]1)NCc1ccc(Cl)cc1 [Compound I-22, 2-((2-((4-chlorobenzyl)amino)-2-oxoethyl)thio)-1H-imidazole-4-carboxylic acid]",< 5.00
9,"O=C(CSc1nc(C(=O)O)c[nH]1)Nc1ccc(Br)cc1 [Compound I-23, 2-((2-((4-bromophenyl)amino)-2-oxoethyl)thio)-1H-imidazole-4-carboxylic acid]",5.00 to 6.70
10,"O=C(CSc1nc(C(=O)O)c[nH]1)Nc1ccc(N2CCOCC2)cc1 [Compound I-24, 2-((2-((4-morpholinophenyl)amino)-2-oxoethyl)thio)-1H-imidazole-4-carboxylic acid]",< 5.00
11,"COc1cc(NC(=O)CSc2nc(C(=O)O)c[nH]2)cc(OC)c1 [Compound I-25, 2-((2-((3,5-dimethoxyphenyl)amino)-2-oxoethyl)thio)-1H-imidazole-4-carboxylic acid]",5.00 to 6.70
12,"COc1ccc(NC(=O)CSc2nc(C(=O)O)c[nH]2)c(OC)c1OC [Compound I-26, 2-((2-oxo-2-((2,3,4-trimethoxyphenyl)amino)ethyl)thio)-1H-imidazole-4-carboxylic acid]",< 5.00
13,"COc1cc(NC(=O)CSc2nc(C(=O)O)c[nH]2)c(OC)cc1Cl [Compound I-27, 2-((2-((4-chloro-2,5-dimethoxyphenyl)amino)-2-oxoethyl)thio)-1H-imidazole-4-carboxylic acid]",5.00 to 6.70
14,"COc1ccc(NC(=O)CSc2nc(C(=O)OCCN(C)C)c[nH]2)cc1OC [Compound I-29, 2-(dimethylamino)ethyl 2-((2-((3,4-dimethoxyphenyl)amino)-2-oxoethyl)thio)-1H-imidazole-4-carboxylate]",5.00 to 6.70
15,"Cc1ccc(NC(=O)CSc2nc(C(=O)O)c[nH]2)cc1C [Compound I-31, 2-((2-((3,4-dimethylphenyl)amino)-2-oxoethyl)thio)-1H-imidazole-4-carboxylic acid]",< 5.00
16,"COc1ccc(CNC(=O)CSc2nc(C(=O)O)c[nH]2)cc1OC [Compound I-32, 2-((2-((3,4-dimethoxybenzyl)amino)-2-oxoethyl)thio)-1H-imidazole-4-carboxylic acid]",5.00 to 6.70
17,"COc1ccc(Br)cc1NC(=O)CSc1nc(C(=O)O)c[nH]1 [Compound I-36, 2-((2-((5-bromo-2-methoxyphenyl)amino)-2-oxoethyl)thio)-1H-imidazole-4-carboxylic acid]",5.00 to 6.70
18,"COc1ccc(CNC(=O)CSc2nc(C(=O)O)c[nH]2)cc1 [Compound I-37, 2-((2-((4-methoxybenzyl)amino)-2-oxoethyl)thio)-1H-imidazole-4-carboxylic acid]",5.00 to 6.70

# Continued, values first:
row,pIC50,SMILES
1,> 6.70,"COc1ccc(NC(=O)CSc2nc(C(N)=O)c[nH]2)cc1OC [Compound I-1, 2-((2-((3,4-dimethoxyphenyl)amino)-2-oxoethyl)thio)-1H-imidazole-4-carboxamid]"
2,5.00 to 6.70,"CNC(=O)c1c[nH]c(SCC(=O)Nc2ccc(OC)c(OC)c2)n1 [Compound I-2, 2-((2-((3,4-dimethoxyphenyl)amino)-2-oxoethyl)thio)-N-methyl-1H-imidazole-4-carboxamide]"
3,> 6.70,"COc1ccc(NC(=O)CSc2nc(C(=O)O)c[nH]2)cc1OC [Compound I-3, 2-((2-((3,4-dimethoxyphenyl)amino)-2-oxoethyl)thio)-1H-imidazole-4-carboxylic acid]"
4,> 6.70,"COc1ccc(NC(=O)CSc2nc(C#N)c[nH]2)cc1OC [Compound I-4, 2-((4-cyano-1H-imidazol-2-yl)thio)-N-(3,4-dimethoxyphenyl)acetamide]"
5,> 6.70,"COc1ccc(NC(=O)CSc2nc(/C(N)=N/O)c[nH]2)cc1OC [Compound I-5, (Z)-N-(3,4-dimethoxyphenyl)-2-((4-(N′-hydroxycarbamimidoyl)-1H-imidazol-2-yl)thio)acetamide]"
6,> 6.70,"CCOC(=O)c1c[nH]c(SCC(=O)Nc2ccc(OC)c(OC)c2)n1 [Compound I-6, ethyl 2-((2-((3,4-dimethoxyphenyl)amino)-2-oxoethyl)thio)-1H-imidazole-4-carboxylate]"
7,5.00 to 6.70,"O=C(CSc1nc(C(=O)O)c[nH]1)Nc1ccc(Cl)cc1F [Compound I-7, 2-((2-((4-chloro-2-fluorophenyl)amino)-2-oxoethyl)thio)-1H-imidazole-4-carboxylic acid]"
8,> 6.70,"COc1ccc(NC(=O)CSc2nc(C(=O)O)c[nH]2)cc1F [Compound I-10, 2-((2-((3-fluoro-4-methoxyphenyl)amino)-2-oxoethyl)thio)-1H-imidazole-4-carboxylic acid]"
9,> 6.70,"COc1cc(NC(=O)CSc2nc(C(=O)O)c[nH]2)ccc1Cl [Compound I-14, 2-((2-((4-chloro-3-methoxyphenyl)amino)-2-oxoethyl)thio)-1H-imidazole-4-carboxylic acid]"
10,5.00 to 6.70,"COc1ccc(Oc2ccc(NC(=O)CSc3nc(C(=O)O)c[nH]3)cc2)cc1 [Compound I-16, 2-((2-((4-(4-methoxyphenoxy)phenyl)amino)-2-oxoethyl)thio)-1H-imidazole-4-carboxylic acid]"
11,5.00 to 6.70,"O=C(CSc1nc(C(=O)O)c[nH]1)Nc1ccc(Cl)cc1 [Compound I-20, 2-((2-((4-chlorophenyl)amino)-2-oxoethyl)thio)-1H-imidazole-4-carboxylic acid]"
12,> 6.70,"COc1ccc(NC(=O)CSc2nc(-c3nnn[nH]3)c[nH]2)cc1OC [Compound I-28, 2-((4-(1H-tetrazol-5-yl)-1H-imidazol-2-yl)thio)-N-(3,4-dimethoxyphenyl)acetamide]"
13,> 6.70,"COc1ccc(NC(=O)CSc2nc(C(=O)OCC(O)CO)c[nH]2)cc1OC (stereo not drawn) [Compound I-30, 2,3-dihydroxypropyl 2-((2-((3,4-dimethoxyphenyl)amino)-2-oxoethyl)thio)-1H-imidazole-4-carboxylate]"
14,> 6.70,"COc1ccc(NC(=O)CSc2nc(C(=O)O)c[nH]2)cc1C#N [Compound I-33, 2-((2-((3-cyano-4-methoxyphenyl)amino)-2-oxoethyl)thio)-1H-imidazole-4-carboxylic acid]"
15,> 6.70,"COc1ccc(NC(=O)CSc2nc(C(=O)O)c[nH]2)cc1Br [Compound I-34, 2-((2-((3-bromo-4-methoxyphenyl)amino)-2-oxoethyl)thio)-1H-imidazole-4-carboxylic acid]"
